Measurements: patent publication US7202237B2, “Pyridylether derivatives, their preparation and use” (NeuroSearch A/S, priority 1997, dated 2007)
Counter-ions that a name gives are not always drawn. Like-named read-outs stand apart in the source and are kept apart here.

Tests used:
[1] = molecular target: nAChRs comprised of α4 and β2 subunits (Rattus norvegicus, UniProt P09483+P12390); test: In vitro inhibition of 3H-cytisine binding
Experimental: In Vitro Inhibition of ^3H-cytisine Binding
The predominant subtype with high affinity for nicotine is comprised of α4 and β2 subunits. nAChRs of the latter type can selectively be labelled by the nicotine agonist ^3H-cytisine.
Tissue Preparation: Preparations are performed at 0–4° C. unless otherwise indicated. […] The homogenate is centrifuged at 27,000×g for 10 min. The supernatant is discarded and the pellet is resuspended in fresh buffer and centrifuged a second time. The final pellet is resuspended in fresh buffer (35 ml per g of original tissue) and used for binding assays.
Assay: Aliquots of 500 μl homogenate are added to 25 μl of test solution and 25 μl of ^3H-cytisine (1 nM, final concentration), mixed and incubated for 90 min at 2° C. Non-specific binding is determined using (−)-nicotine (100 μM, final concentration). After incubation the samples are added 5 ml of ice-cold buffer and poured directly onto Whatman GF/C glass fibre filters under suction and immediately washed with 2×5 ml ice-cold buffer. The amount of radioactivity on the filters is determined by conventional liquid scintillation counting. Specific binding is total binding minus non-specific binding.

[2] = molecular target: T1, neuronal nicotinic receptors (α4β2 subtype of nicotinic receptors) (Rattus norvegicus, UniProt P09483+P12390); test: In vitro inhibition of 3H-epibatidin binding
T1 construct: The forebrain (÷cerebellum) from a male Wistar rat (150–250 g) is homogenized; from tissue; host or cells: rat forebrain (without cerebellum) membrane homogenate
T1 sequence (P09483 31-630): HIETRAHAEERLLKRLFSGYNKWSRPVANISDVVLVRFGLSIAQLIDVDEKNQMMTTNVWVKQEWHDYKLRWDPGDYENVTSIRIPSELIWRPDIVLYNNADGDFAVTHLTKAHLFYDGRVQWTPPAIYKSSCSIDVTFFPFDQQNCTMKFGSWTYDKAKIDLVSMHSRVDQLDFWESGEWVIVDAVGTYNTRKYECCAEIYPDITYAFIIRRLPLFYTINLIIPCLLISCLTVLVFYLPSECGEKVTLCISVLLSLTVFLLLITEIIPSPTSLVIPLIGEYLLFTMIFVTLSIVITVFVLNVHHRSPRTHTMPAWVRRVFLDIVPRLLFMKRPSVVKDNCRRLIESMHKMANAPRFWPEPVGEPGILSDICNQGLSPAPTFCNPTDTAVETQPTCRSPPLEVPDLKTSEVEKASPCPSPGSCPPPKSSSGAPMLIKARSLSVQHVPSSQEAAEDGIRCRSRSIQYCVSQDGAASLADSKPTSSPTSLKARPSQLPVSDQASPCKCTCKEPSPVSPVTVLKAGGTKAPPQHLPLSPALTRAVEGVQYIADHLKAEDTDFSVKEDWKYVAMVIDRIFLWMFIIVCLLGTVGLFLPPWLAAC
T1 sequence (P12390 25-500): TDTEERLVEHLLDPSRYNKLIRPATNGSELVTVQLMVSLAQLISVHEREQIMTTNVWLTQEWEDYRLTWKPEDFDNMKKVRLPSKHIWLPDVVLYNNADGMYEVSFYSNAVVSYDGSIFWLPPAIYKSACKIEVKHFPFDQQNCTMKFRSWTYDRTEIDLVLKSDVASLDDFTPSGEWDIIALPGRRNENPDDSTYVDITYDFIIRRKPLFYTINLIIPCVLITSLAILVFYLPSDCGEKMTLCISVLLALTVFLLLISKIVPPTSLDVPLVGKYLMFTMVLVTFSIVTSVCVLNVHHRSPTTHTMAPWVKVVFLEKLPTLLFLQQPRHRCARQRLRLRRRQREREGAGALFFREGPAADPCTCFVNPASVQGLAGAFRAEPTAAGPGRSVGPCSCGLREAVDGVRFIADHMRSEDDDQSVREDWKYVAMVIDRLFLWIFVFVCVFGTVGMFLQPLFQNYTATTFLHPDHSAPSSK
Experimental: In Vitro Inhibition of ^3H-epibatidin Binding
The high affinity binding site for ^3H-epibatidin is most certainly binding to the α4β2 subtype of nicotinic receptors. The identity of the low affinity site is still unknown; does it represent a second nicotinic receptor or a second site in the same receptor.
Tissue preparation: Preparations are performed at 0–4° C. unless otherwise indicated. The forebrain (÷cerebellum) from a male Wistar rat (150–250 g) is homogenized for 10–20 sec in 20 ml Tris, HCl (50 mM, pH 7.4) using an Ultra-Turrax homogenizer. The tissue suspension is centrifuged at 27,000×g for 10 min. The supernatant is discarded and the pellet is washed three times by centrifugation at 27,000×g for 10 min in 20 ml fresh buffer, and the final pellet is resuspended in fresh buffer (400 ml per g of original tissue) and used for binding assays.
Assay: Aliquots of 2.0 ml homogenate are added to 0.100 ml of test solution and 0.100 ml of ^3H-epibatidin (0.3 nM, final concentration), mixed and incubated for 60 min at room temperature. Non-specific binding is determined using (−)-nicotine (30 μM, final concentration). After incubation the samples are poured directly onto Whatman GF/C glass fibre filters (presoaked in 0.1% PEI for at least 20 min) under suction and immediately washed with 2×5 ml ice-cold buffer. The amount of radioactivity on the filters is determined by conventional liquid scintillation counting. Specific binding is total binding minus non-specific binding.

[3] = molecular target: nAChR formed by the α7 subunit isoform (Rattus norvegicus, UniProt Q05941); test: biochemical; format: binding
Chain of nAChR formed by the α7 subunit isoform (Q05941 23-502): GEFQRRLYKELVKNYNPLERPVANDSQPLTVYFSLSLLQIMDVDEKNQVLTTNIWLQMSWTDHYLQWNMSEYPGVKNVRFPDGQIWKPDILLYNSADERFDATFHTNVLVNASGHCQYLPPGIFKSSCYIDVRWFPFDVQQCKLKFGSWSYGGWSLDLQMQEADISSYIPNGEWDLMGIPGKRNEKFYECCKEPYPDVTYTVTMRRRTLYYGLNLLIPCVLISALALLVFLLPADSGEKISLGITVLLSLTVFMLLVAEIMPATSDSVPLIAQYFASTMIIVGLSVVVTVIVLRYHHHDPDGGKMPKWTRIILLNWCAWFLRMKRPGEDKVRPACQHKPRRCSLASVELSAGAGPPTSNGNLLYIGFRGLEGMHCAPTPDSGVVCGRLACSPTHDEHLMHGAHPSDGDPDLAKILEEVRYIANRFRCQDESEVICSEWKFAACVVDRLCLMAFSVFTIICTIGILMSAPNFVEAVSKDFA

[4] = times that of morphine; cited from earlier work
[5] = rat cerebral cortex homogenate, 1 nM 3H-cytisine, read-out: 3H-cytisine IC50
[6] = rat forebrain homogenate, 0.3 nM 3H-epibatidin, read-out: 3H-epibatidin IC50

Chain of nAChRs comprised of α4 and β2 subunits (P09483 31-630): as the sequence (P09483 31-630) above
Chain of nAChRs comprised of α4 and β2 subunits (P12390 25-500): as the sequence (P12390 25-500) above

Structure (SMILES)	IC50 [1, 5]	IC50 [2, 6]	IC50 [3]	further results
c1cncc(OC2CCNC2)c1 (racemic) [Compound 1b, (±)-3-Oxy-(3-pyridyl)-pyrrolidine]				IC50 [1]: 70 nM; IC50 [2]: 410 nM; IC50 ([3]; read-out: 3H-α-bungarotoxin IC50): > 30000 nM
c1cncc(OC2CCCNCC2)c1 (racemic) (as salt: fumaric acid salt) [Compound 7b, (±)-4-Oxy-(3-pyridyl)-homopiperidine fumaric acid salt]				melting point: 117 to 119 °C
CN1CCC(Oc2cccnc2)C1 (racemic) [Compound 1a, (±)-1-Methyl-3-oxy-(3-pyridyl)-pyrrolidine]	100 nM	700 nM	16000 nM	
Clc1ccc(C2CC3CCC2N3)cn1 (centres unmarked) [Epibatidine]				analgesic potency relative to morphine [4]: ~500 times
c1cncc(OC2CCCNCC2)c1 (racemic) [Compound 7b, (±)-4-Oxy-(3-pyridyl)-homopiperidine fumaric acid salt]	60 nM	300 nM	20000 nM	
CN1CCCC(Oc2cccnc2)C1 (racemic) [Compound 3a, (±)-1-Methyl-3-oxy-(3-pyridyl)-piperidine]	190 nM	720 nM	19000 nM	
